Usually IC50 stands for the midpoint of a concentration-inhibition curve.

Structures are written as SMILES.

The target in assay [1] is purified human, His-tagged PRC2 complex (Homo sapiens, UniProt O75530+Q15910). The assay is described as follows: Hot Spot HMT assay: inhibition of PRC2 enzymatic activity (transfer of tritiated methyl from SAM to core histone, filter binding). Format: biochemical. Conditions: Inhibition of PRC2-mediated enzymatic activity; 10 nM PRC2 complex, 0.05 mg/ml core histone H3, 1 uM 3H-SAM, 1 hr at 30°C. A digest of the protocol: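 Serial compound dilutions starting at 1.0 µM were pre-incubated 20 min at 30°C with 10 nM complex (His-EZH2, Flag-EED, His-SUZ12, His-AEBP2, His-RbAp48) and 0.05 mg/ml core H3. Reaction ran 1 hr at 30°C after adding 1 uM [3H]-SAM; scintillation counting followed filtration.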
purified human, His-tagged PRC2 complex, sequence (Q15910 whole entry): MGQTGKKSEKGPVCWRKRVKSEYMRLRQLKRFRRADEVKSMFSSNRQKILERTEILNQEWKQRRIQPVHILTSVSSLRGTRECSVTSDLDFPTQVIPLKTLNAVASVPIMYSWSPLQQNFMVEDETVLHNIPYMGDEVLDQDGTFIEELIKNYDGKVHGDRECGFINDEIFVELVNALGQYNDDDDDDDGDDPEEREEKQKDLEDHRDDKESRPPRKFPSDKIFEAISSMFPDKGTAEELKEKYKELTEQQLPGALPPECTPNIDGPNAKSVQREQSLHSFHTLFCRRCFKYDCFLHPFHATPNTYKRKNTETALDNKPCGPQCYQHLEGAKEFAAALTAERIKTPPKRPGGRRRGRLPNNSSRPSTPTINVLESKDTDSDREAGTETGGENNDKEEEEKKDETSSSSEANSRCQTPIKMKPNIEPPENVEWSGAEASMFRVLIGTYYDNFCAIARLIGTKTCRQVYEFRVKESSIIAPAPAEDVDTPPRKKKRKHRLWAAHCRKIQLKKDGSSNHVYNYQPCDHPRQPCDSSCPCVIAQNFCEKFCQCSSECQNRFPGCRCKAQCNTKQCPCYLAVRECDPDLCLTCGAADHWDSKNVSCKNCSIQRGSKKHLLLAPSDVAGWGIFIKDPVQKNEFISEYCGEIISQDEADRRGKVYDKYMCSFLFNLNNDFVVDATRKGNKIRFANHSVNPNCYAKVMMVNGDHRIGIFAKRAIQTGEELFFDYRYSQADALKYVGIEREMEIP
purified human, His-tagged PRC2 complex, sequence (O75530 whole entry): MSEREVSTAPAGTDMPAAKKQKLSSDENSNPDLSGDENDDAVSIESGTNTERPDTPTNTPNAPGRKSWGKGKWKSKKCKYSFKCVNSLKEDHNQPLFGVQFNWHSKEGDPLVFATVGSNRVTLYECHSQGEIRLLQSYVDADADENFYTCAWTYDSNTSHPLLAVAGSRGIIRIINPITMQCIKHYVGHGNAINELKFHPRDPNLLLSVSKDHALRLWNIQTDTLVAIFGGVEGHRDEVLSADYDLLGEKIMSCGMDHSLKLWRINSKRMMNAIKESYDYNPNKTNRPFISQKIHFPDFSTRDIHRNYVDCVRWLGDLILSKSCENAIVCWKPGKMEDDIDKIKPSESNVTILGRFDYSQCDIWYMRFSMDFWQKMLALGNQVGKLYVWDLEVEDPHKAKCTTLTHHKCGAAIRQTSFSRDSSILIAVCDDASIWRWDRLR
purified human, His-tagged PRC2 complex, sequence (Q15022 whole entry partner): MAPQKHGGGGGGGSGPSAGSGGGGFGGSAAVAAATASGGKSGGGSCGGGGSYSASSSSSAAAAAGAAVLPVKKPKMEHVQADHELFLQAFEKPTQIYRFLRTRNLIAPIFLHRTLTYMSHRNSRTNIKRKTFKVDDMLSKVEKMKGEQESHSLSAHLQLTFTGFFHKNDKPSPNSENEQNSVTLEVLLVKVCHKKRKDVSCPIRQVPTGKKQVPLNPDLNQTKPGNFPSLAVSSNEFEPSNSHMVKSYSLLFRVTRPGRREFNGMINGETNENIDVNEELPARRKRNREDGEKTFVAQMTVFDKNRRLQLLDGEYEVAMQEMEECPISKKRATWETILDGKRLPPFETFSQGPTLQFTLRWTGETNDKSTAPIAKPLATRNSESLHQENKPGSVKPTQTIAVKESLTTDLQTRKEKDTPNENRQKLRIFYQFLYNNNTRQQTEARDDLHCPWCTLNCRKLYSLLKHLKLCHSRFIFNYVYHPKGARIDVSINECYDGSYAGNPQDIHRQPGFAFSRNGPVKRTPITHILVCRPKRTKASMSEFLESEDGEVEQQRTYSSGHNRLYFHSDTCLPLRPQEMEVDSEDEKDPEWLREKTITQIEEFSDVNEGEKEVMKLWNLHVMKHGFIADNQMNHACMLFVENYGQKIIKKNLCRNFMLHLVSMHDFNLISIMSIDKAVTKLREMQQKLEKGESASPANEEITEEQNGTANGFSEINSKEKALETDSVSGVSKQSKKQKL
purified human, His-tagged PRC2 complex, sequence (Q6ZN18 whole entry partner): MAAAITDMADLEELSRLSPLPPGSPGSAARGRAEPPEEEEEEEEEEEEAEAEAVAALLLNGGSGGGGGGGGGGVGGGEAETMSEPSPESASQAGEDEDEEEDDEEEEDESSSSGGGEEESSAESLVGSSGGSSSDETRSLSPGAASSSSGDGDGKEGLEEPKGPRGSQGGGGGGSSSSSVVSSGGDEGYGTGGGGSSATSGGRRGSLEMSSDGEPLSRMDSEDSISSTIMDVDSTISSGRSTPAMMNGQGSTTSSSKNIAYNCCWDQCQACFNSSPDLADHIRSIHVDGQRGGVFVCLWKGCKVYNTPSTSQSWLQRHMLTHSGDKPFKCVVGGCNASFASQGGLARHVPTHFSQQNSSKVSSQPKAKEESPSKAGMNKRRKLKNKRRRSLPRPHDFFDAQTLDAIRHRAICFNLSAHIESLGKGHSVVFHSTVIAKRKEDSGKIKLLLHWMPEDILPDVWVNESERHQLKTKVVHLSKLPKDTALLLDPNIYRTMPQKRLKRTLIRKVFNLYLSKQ
purified human, His-tagged PRC2 complex, sequence (Q09028 whole entry partner): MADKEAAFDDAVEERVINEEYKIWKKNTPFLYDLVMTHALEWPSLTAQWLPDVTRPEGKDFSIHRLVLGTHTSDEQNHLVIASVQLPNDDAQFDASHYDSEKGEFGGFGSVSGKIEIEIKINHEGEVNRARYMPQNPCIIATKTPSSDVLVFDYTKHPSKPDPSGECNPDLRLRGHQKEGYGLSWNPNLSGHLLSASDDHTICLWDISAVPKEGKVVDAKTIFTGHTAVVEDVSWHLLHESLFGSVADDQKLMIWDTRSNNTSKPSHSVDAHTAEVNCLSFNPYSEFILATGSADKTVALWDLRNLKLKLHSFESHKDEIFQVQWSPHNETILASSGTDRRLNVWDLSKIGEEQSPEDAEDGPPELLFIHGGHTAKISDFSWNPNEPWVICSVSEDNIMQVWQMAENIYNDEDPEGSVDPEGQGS

For assay [2], the system named is PRC2-mediated histone H3 methylation. The assay is described as follows: Tri-Methyl Histone H3 (Lys 27) Sandwich ELISA in Pfeiffer cells: inhibition of PRC2-mediated histone H3 methylation. Format: cell-based, human. The following applies: Homo sapiens; Inhibition of EZH2-mediated histone H3 trimethylation; Pfeiffer cells (EZH2 A677G), 96 hours incubation. A digest of the protocol:
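Pfeiffer DLBCL cells (EZH2 A677G mutant) treated with 3-fold serial dilutions, 1µM to 0.15 nM final, for 96 hours at 37°C. Acid (0.4M HCl) histone extracts, neutralized, assayed by H3K27me3 sandwich ELISA with HRP/TMB read at 450 nm.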
Background: ELISA stands for enzyme-linked immunosorbent assay.

Another assay deals with Karpas 422 cells. As to the kind of experiment: Karpas 422 cell viability, CTG (Cell Titre Glo) assay. The class given is cell-based, human. Conditions: Homo sapiens; Inhibition of proliferation of Karpas 422 cells (EZH2 Y641N); viability measured Day 4, Day 7 or Day 11, time point of the tabulated values not stated. A digest of the protocol:
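CellTiter-Glo viability IC50s taken at Day 4, Day 7 and Day 11 of continuous compound exposure (3-fold series, 10µM top, 1.5nM lowest) in RPMI/20% FBS at 37 °C. Y641N-mutant EZH2 lymphoma line seeded at 1000 cells per well; medium and compound replaced on Day 7 for Day 11 read.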

`CN(C)c1ccc(-c2cnc(NCc3c(F)ccc4c3CCO4)n3cc(C#N)nc23)cn1` [Example 60, 8-(6-(dimethylamino)pyridin-3-yl)-5-(((5-fluoro-2,3-dihydrobenzofuran-4-yl)methyl)amino)imidazo[1,2-c]pyrimidine-2-carbonitrile]: the IC50 in assay [1] was 100 to 500 nM; in assay [2], more than 500 nM; in the assay with Karpas 422 cells, 250 to 500 nM.

`Cc1nn(C[C@@H](C)O)c(C)c1-c1cnc(NCc2c(F)ccc3c2CCO3)n2cc(C#N)nc12` [Example 66, (R)-5-(((5-fluoro-2,3-dihydrobenzofuran-4-yl)methyl)amino)-8-(1-(2-hydroxypropyl)-3,5-dimethyl-1H-pyrazol-4-yl)imidazo[1,2-c]pyrimidine-2-carbonitrile]: the figures for the IC50 (in assay [1]; in assay [2]; in the assay with Karpas 422 cells) were 100 to 500 nM, 100 to 500 nM and not above 250 nM, respectively.

Take `COC(=O)c1ccc(-c2cnc(NCc3c(F)ccc4c3CCO4)n3cc(C#N)nc23)cc1` [Example 167, methyl 4-(2-cyano-5-(((5-fluoro-2,3-dihydrobenzofuran-4-yl)methyl)amino)imidazo[1,2-c]pyrimidin-8-yl)benzoate]: the IC50 in assay [1] was 100 to 500 nM; in assay [2] it was more than 500 nM; in the assay with Karpas 422 cells, not above 250 nM.

Regarding `N#Cc1cn2c(NCc3c(F)ccc4c3CCO4)ncc(-c3ccc(C4CCCN4)cc3)c2n1` (stereo not drawn) [Example 204, 5-(((5-fluoro-2,3-dihydrobenzofuran-4-yl)methyl)amino)-8-(4-(pyrrolidin-2-yl)phenyl)imidazo[1,2-c]pyrimidine-2-carbonitrile], the IC50 was 100 to 500 nM in assay [1], not above 100 nM in assay [2] and not above 250 nM in the assay on Karpas 422 cells.

`[2H]C1Oc2ccc(F)c(C([2H])([2H])Nc3ncc(-c4ccc(CN(C)C)cc4C)c4nc(C#N)cn34)c2C1[2H]` (stereo not drawn) [Example 223, 8-(4-((dimethylamino)methyl)-2-methylphenyl)-5-(((5-fluoro-2,3-dihydrobenzofuran-4-yl-2,3-d2)methyl-d2)amino)imidazo[1,2-c]pyrimidine-2-carbonitrile]: the values for the IC50 (in assay [1]; in assay [2]; with Karpas 422 cells) were less than 100 nM, 100 to 500 nM and not above 250 nM, respectively.

With `Cc1ncccc1-c1cnc(NCc2c(F)ccc3c2CCO3)n2cc(C#N)nc12` [Example 105, 5-(((5-fluoro-2,3-dihydrobenzofuran-4-yl)methyl)amino)-8-(2-methylpyridin-3-yl)imidazo[1,2-c]pyrimidine-2-carbonitrile], the half-inhibitory concentration (IC50) in assay [1] was less than 100 nM; in assay [2], not above 100 nM; with Karpas 422 cells it was not above 250 nM.

Regarding `CN(C)C(=O)c1ccc(-c2cnc(NCc3c(F)ccc4c3CCO4)n3cc(C#N)nc23)cc1F` [Example 36, 4-(2-cyano-5-(((5-fluoro-2,3-dihydrobenzofuran-4-yl)methyl)amino)imidazo[1,2-c]pyrimidin-8-yl)-2-fluoro-N,N-dimethylbenzamide], the IC50 in assay [1] is less than 100 nM; in assay [2] it was not above 100 nM; in the assay with Karpas 422 cells, not above 250 nM.

Turning to `CN(C)Cc1ccc(-c2cnc(NCc3c(F)ccc4c3CCO4)n3cc(C#N)nc23)c(F)c1` [Example 61, 8-(4-((dimethylamino)methyl)-2-fluorophenyl)-5-(((5-fluoro-2,3-dihydrobenzofuran-4-yl)methyl)amino)imidazo[1,2-c]pyrimidine-2-carbonitrile], the IC50 is less than 100 nM in assay [1], not above 100 nM in assay [2] and not above 250 nM with Karpas 422 cells.

Regarding `[2H]C([2H])([2H])N(Cc1ccc(-c2cnc(NCc3c(F)ccc4c3CCO4)n3cc(C#N)nc23)c(C)c1)C([2H])([2H])[2H]` [Example 202, 8-(4-((bis(methyl-d3)amino)methyl)-2-methylphenyl)-5-(((5-fluoro-2,3-dlhydrobenzofuran-4-yl)methyl)amino)imidazo[1,2-c]pyrimidine-2-carbonitrile], the IC50 was less than 100 nM in assay [1], not above 100 nM in assay [2] and not above 250 nM with Karpas 422 cells.

On to `Cc1cc(CN(C)C)ccc1-c1cnc(NCc2c(F)ccc3c2CCO3)n2cc(C#N)nc12` [Example 32, 8-(4-((dimethylamino)methyl)-2-methylphenyl)-5-(((5-fluoro-2,3-dihydrobenzofuran-4-yl)methyl)amino)imidazo[1,2-c]pyrimidine-2-carbonitrile], for which the results for the IC50 (in assay [1]; in assay [2]; in the assay with Karpas 422 cells) were 100 to 500 nM, not above 100 nM and not above 250 nM, respectively.

Take `CN1CCCC1c1ccc(-c2cnc(NCc3c(F)ccc4c3CCO4)n3cc(C#N)nc23)cc1` (stereo not drawn) [Example 160, 5-(((5-fluoro-2,3-dihydrobenzofuran-4-yl)methyl)amino)-8-(4-(1-methylpyrrolidin-2-yl)phenyl)imidazo[1,2-c]pyrimidine-2-carbonitrile]: the half-inhibitory concentration (IC50) was less than 100 nM in assay [1], not above 100 nM in assay [2] and not above 250 nM in the assay on Karpas 422 cells.

For `Cc1c(-c2cnc(NCc3c(F)ccc4c3CCO4)n3cc(C#N)nc23)ccc(CN(C)C)c1F` [Example 85, 8-(4-((dimethylamino)methyl)-3-fluoro-2-methylphenyl)-5-(((5-fluoro-2,3-dihydrobenzofuran-4-yl)methyl)amino)imidazo[1,2-c]pyrimidine-2-carbonitrile], the IC50 was less than 100 nM in assay [1], not above 100 nM in assay [2] and not above 250 nM in the assay on Karpas 422 cells.

Regarding `CN(C)Cc1ccc(-c2cnc(NCc3c(F)ccc4c3CCO4)n3cc(C#N)nc23)cc1C#N` [Example 201, 8-(3-cyano-4-((dimethylamino)methyl)phenyl)-5-(((5-fluoro-2,3-dihydrobenzofuran-4-yl)methyl)amino)imidazo[1,2-c]pyrimidine-2-carbonitrile], the IC50 in assay [1] is less than 100 nM; in assay [2] it was 100 to 500 nM; in the assay with Karpas 422 cells, not above 250 nM.

Consider `CN(C)S(=O)(=O)c1ccc(-c2cnc(NCc3c(F)ccc4c3CCO4)n3cc(C#N)nc23)cc1` [Example 58, 4-(2-cyano-5-(((5-fluoro-2,3-dihydrobenzofuran-4-yl)methyl)amino)imidazo[1,2-c]pyrimidin-8-yl)-N,N-dimethylbenzenesulfonamide], for which the concentration for half-maximal inhibition (IC50) was less than 100 nM in assay [1], 100 to 500 nM in assay [2] and not above 250 nM with Karpas 422 cells.

Take `N#Cc1cn2c(NCc3c(F)ccc4c3CCO4)ncc(-c3ccc(C4CCCO4)cc3)c2n1` (stereo not drawn) [Example 162, 5-(((5-fluoro-2,3-dihydrobenzofuran-4-yl)methyl)amino)-8-(4-(tetrahydrofuran-2-yl)phenyl)imidazo[1,2-c]pyrimidine-2-carbonitrile]: the IC50 in assay [1] is less than 100 nM; in assay [2], 100 to 500 nM; in the assay on Karpas 422 cells it was 250 to 500 nM.

As for `COCCOc1ccc(-c2cnc(NCc3c(F)ccc4c3CCO4)n3cc(C#N)nc23)cc1` [Example 161, 5-(((5-fluoro-2,3-dihydrobenzofuran-4-yl)methyl)amino)-8-(4-(2-methoxyethoxy)phenyl)imidazo[1,2-c]pyrimidine-2-carbonitrile], the IC50 was less than 100 nM in assay [1], 100 to 500 nM in assay [2] and not above 250 nM with Karpas 422 cells.

Consider `Cc1cc(S(=O)(=O)N(C)C)ccc1-c1cnc(NCc2c(F)ccc3c2CCO3)n2cc(C#N)nc12` [Example 48, 4-(2-cyano-5-(((5-fluoro-2,3-dihydrobenzofuran-4-yl)methyl)amino)imidazo[1,2-c]pyrimidin-8-yl)-N,N,3-trimethylbenzenesulfonamide], for which the 50% inhibitory concentration (IC50) in assay [1] is less than 100 nM; in assay [2] it was 100 to 500 nM; in the assay on Karpas 422 cells, not above 250 nM.

For `CN(C)Cc1cc(F)c(-c2cnc(NCc3c(F)ccc4c3CCO4)n3cc(C#N)nc23)cc1F` [Example 39, 8-(4-((dimethylamino)methyl)-2,5-difluorophenyl)-5-(((5-fluoro-2,3-dihydrobenzofuran-4-yl)methyl)amino)imidazo[1,2-c]pyrimidine-2-carbonitrile], the concentration for half-maximal inhibition (IC50) in assay [1] was less than 100 nM; in assay [2], not above 100 nM; in the assay with Karpas 422 cells it was not above 250 nM.

For the molecule `Cc1ncc(F)cc1-c1cnc(NCc2c(F)ccc3c2CCO3)n2cc(C#N)nc12` [Example 62, 5-(((5-fluoro-2,3-dihydrobenzofuran-4-yl)methyl)amino)-8-(5-fluoro-2-methylpyridin-3-yl)imidazo[1,2-c]pyrimidine-2-carbonitrile], the values for the IC50 (in assay [1]; in assay [2]; in the assay on Karpas 422 cells) were less than 100 nM, 100 to 500 nM and not above 250 nM, respectively.

As to `CNCc1ccc(-c2cnc(NCc3c(F)ccc4c3CCO4)n3cc(C#N)nc23)cc1` [Example 185, 5-(((5-fluoro-2,3-dihydrobenzofuran-4-yl)methyl)amino)-8-(4-((methylamino)methyl)phenyl)imidazo[1,2-c]pyrimidine-2-carbonitrile], the IC50 is less than 100 nM in assay [1], not above 100 nM in assay [2] and not above 250 nM in the assay with Karpas 422 cells.

Turning to `N#Cc1cn2c(NCc3c(F)ccc4c3CCO4)ncc(-c3ccc(CN4CCCC4)cc3)c2n1` [Example 74, 5-(((5-fluoro-2,3-dihydrobenzofuran-4-yl)methyl)amino)-8-(4-(pyrrolidin-1 - ylmethyl)phenyl)imidazo[1,2-c]pyrimidine-2-carbonitrile], the values for the IC50 (in assay [1]; in assay [2]; in the assay on Karpas 422 cells) were less than 100 nM, not above 100 nM and not above 250 nM, respectively.

The values above are taken from patent EP4043466B1, “PRC2 INHIBITORS” (Mirati Therapeutics, Inc., priority 2018, dated 2019).
